Assay results from patent US5541171A, “Orally administrable pharmaceutical composition” (priority 1981, dated 1996).
Entries after “also recorded” stand apart in the source; their conditions may differ.

Assays:
[1] = tested on: ulcerative colitis or proctitis; experiment: Randomised double-blind 16 week maintenance trial in colitis: relapse; type: in vivo, patients
Description: Seventy-two patients who were in remission with ulcerative colitis or proctitis and taking at least 4 sulphasalazine tablets each day gave their informed consent to a clinical trial. Remission was defined as the passage of three or fewer stools each day without blood or slime during the previous month. Thirty-six patients were male and 36 female. Sigmoidoscopy with rectal biopsy was performed initially and patients only entered the trial if the mucosa was normal (grade 1) or oedematous (grade 2). Biopsies were coded and reviewed by a pathologist who graded them as 1 (normal) or grades 2, 3 or 4 representing mild, moderate or severe inflammatory change.
At least 3 tablets of 5-ASA were taken daily (1200 mg) with an increased dose of 1 tablet for each gram of sulphasalazine above the minimum entry dose of 2 grams for patients taking a high dose of sulphasalazine. […]

[2] = in vivo
Description: Patients completed diary cards throughout 16 weeks and were asked to note any side effects; they were seen after 4, 12 and 16 weeks. On completion of the trial a further sigmoidoscopy was performed to ensure the muscosa appeared normal. Patients were seen promptly if symptoms recurred and a sigmoidoscopy was performed at that time. A relapse was defined as a recurrence of symptoms with increased stool frequency and blood loss with sigmoidoscopic changes of contact or spontaneous mucosal haemorrhage (grade 3) or the presence of pus with bleeding and ulceration (grade 4). Blood was taken for a routine blood count and examination of the film at each clinic attendance and measurements of the serum electrolytes and liver function tests were performed initially and after 16 weeks. The study, which was randomised and double-blind in design, involved using identical placebo tablets for both sulphasalazine and 5-ASA; each patient was given two sets of tablets with either active 5-ASA and placebo sulphasalazine or placebo 5-ASA and active sulphasalazine. The patient's usual dose of sulphasalazine was continued with a minimum dose of 2 grams daily. The tablets of 5-ASA contained 400 mg (ie the amount of 5-ASA contained in 1 gram of sulphasalazine). […] Compliance was checked at each hospital visit by counting the number of tablets returned. […]

[3] = cited from earlier work
[4] = tested on: colitis, Crohn's disease, idiopathic proctitis and chronic arthritis; conditions: in vivo; cited from earlier work
[5] = Serum sulphapyridine levels after ingestion of coated capsules (HPLC)
Description: Six convalescent patients, 3 male and 3 female with a mean age of 57 years, from a general medical ward gave informed consent to a clinical trial. […] The thickness of the coat was checked using a micrometer to establish the range of thickness and to measure both the wide and narrow end of the capsule. Each capsule contained barium sulphate (300 mg) potato starch (20 mg) and sulphapyridine (300 mg) as a convenient marker Plain abdominal X-rays were taken at 5, 8 and 12 hours after ingestion and blood samples at 0, 3, 5, 7, 9, 12 and 24 hours after ingestion to assay sulphapyridine levels.
Sulphapyridine was analysed by high pressure liquid chromotography (HPLC) using a modification of the method described by Shaw et al (J. Pharm. Pharmacol. 1980;32;67). The analysis was performed on a LiChrosorb 10 RP 18 bonded silica reversed phase column (Merck). The mobile phase was acetonitrile--0.05M potassium dihydrogen phosphate solution (20:80) containing 0.1 per cent tetrabutyl ammonium hydroxide. Sulphapyridine was detected spectrometrically at 260 nm. Serum samples were treated with an equal volume of ethanol to precipitate plasma proteins and after centrifugation, the supernatant was injected on to the chromatograph. Sulphapyridine concentration was read directly from a calibration curve which was linear over the range 1-25 μg/ml (R=0.99).

Row | SMILES | significance of difference in relapses between 5-ASA and sulphasalazine ([1]; chi squared) | side effects (headache, nausea or indigestion), comparison between groups [2] | clearance / excretion ([3]; in vivo) | serum levels ([3]; in vivo) | usefulness in treatment [4] | absorption after oral administration [3] | drug detected in serum 3 hours after ingestion ([5]; 3 hours, any patient) | time of maximal serum levels ([5]; human, in vivo) | patients with drug detected in serum 5 hours after ingestion ([5]; in vivo) | Relapses ([1]; 16 weeks, 34 patients on 5-ASA (coated tablets, at least 1200 mg daily), 33 on sulphasalazine (minimum 2 grams daily))
1 | Nc1ccc(O)c(C(=O)O)c1 [Example 5-ASA, 5-amino-salicylic acid] | not statistically significant; also recorded: p = NS | no difference | excreted rapidly after acetylation | very low | pharmacologically active agent in the treatment of colonic and rectal ailments | – | – | – | – | –
2 | Nc1ccc(S(=O)(=O)Nc2ccccn2)cc1 [sulphapyridine] | – | – | slowly cleared from the serum | – | – | almost entirely absorbed from the small intestine before reaching the colon | No drug was detected | 12 or 24 hours after ingestion | 2 patients | –
3 | O=C(O)c1cc(/N=N/c2ccc(S(=O)(=O)Nc3ccccn3)cc2)ccc1O [sulphasalazine, Salicylazosulphapyridine] | – | no difference | – | – | useful in the treatment of colitis, Crohn's disease, idiopathic proctitis and chronic arthritis | only absorbed to a limited extent before reaching the colon | – | – | – | 6 patients
